From patent US7923465B2, “Cannabinoid receptor ligands, pharmaceutical compositions containing them, and process for their preparation” (priority 2005, dated 2011)
Where two headings read alike, the source gives them in different places.

Columns and labels:
CB1 [1] = target: T1, CB1 (Rattus norvegicus, UniProt P20272); assay: Rat CB1 receptor binding using brain membrane, [3H]SR141716A displacement (Protocol I); set-up: CB1 receptor present in a rat brain membrane preparation; from tissue; host or cells: rat brain membrane; inhibition: dose or concentration left out as unconfirmed; conditions: for inhibition: 1 h
T1 sequence (P20272 whole entry): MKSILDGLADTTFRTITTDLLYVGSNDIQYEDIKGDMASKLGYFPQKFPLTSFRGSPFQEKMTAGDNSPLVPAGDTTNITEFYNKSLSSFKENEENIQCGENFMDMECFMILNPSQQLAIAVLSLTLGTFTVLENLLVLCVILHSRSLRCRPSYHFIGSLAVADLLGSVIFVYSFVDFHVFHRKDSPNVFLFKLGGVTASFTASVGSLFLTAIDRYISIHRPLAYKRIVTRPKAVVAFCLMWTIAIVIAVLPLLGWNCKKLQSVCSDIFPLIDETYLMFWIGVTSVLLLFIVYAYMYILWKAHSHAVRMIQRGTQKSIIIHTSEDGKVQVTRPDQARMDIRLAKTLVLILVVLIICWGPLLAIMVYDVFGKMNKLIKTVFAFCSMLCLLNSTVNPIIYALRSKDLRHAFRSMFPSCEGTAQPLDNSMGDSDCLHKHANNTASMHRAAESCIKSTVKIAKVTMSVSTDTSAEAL

CB1 [2] = target: T1, CB1; assay: GTPγS binding assay, CB1 functional assay in rat cerebellar membrane (Protocol VIII); assay type: biochemical; set-up: 10 μg rat cerebellum membrane; from tissue; host or cells: rat cerebellum membrane, prepared in-house; conditions: for activation at 1 µM: 1 h, read-out: Per Se % Stimulation; for inhibition at 1 µM: read-out: % Inhibition of WIN-55212-2 induced stimulation
Method in brief: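 Rat cerebellar membranes (10 μg) incubated 1 h at 30 °C with 0.2 nM [35S]GTPγS, 50 μM GDP, and compound at 1 μM or 300 nM, alone or with 1 μM WIN 55,212-2, in Tris/MgCl2/EGTA/NaCl pH 7.4. Filter-bound radioactivity counted; percent stimulation calculated against basal specific binding (nonspecific defined by 10 μM GTPγS).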

hCB2 = hCB2 (Homo sapiens, UniProt P34972); assay: Antagonism of CB2 receptors expressed in CHO cells, cAMP assay against CP 55,940 (Protocol IX.1); assay type: cell-based; set-up: expressed in transfected cells; host or cells: CHO (h-CB2/CHO, G418-selected); conditions: CHO, h-CB2/CHO cells, vs 10 nM CP 55,940
Sequence of hCB2 (P34972 whole entry): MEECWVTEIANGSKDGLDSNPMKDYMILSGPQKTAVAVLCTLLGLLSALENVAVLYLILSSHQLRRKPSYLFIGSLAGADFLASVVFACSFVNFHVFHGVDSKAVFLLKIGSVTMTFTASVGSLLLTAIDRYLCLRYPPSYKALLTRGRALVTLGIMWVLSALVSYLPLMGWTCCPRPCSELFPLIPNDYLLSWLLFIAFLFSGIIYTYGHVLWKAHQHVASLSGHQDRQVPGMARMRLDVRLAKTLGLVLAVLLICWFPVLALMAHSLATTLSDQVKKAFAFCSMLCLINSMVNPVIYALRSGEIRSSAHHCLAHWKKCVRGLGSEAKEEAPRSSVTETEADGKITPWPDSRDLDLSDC
Method in brief: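 h-CB2/CHO cells in Krebs buffer with 0.1% FAF-BSA and 1 mM IBMX were pre-incubated 10 min with antagonist, then stimulated 30 min at room temperature with 10 nM CP 55,940 plus 10 μM forskolin. cAMP quantified by chemiluminescence; values from nonlinear regression of dose–response curves.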

[3] = GTPγS binding over basal, rat cerebellar membrane, tested at 1 uM
[4] = GTPγS binding, tested at 1 uM in presence of 1 μM WIN 55,212-2
[5] = rat brain membrane, [3H]SR141716A displacement, read-out: % Displacement Protocol I

Row | Structure (SMILES) | % Displacement Protocol I (CB1 [1]; rat brain membrane, [3H]SR141716A displacement) | Per Se % Stimulation (CB1 [2]; [3]) | % Inhibition of WIN-55212-2 induced stimulation (CB1 [2]; [4]) | inhibition at 10 µM (hCB2) | inhibition (CB1 [1]; [5]) | inhibition (CB1 [1]; read-out: % Displacement Protocol I, rat brain membrane, [3H]SR141716A displacement) | activation at 1 µM (CB1 [2]; [3]) | inhibition at 1 µM (CB1 [2]; [4])
1 | O=C(NN1CCCCC1)c1nn(-c2ccc(Cl)cc2)c2c1C1CC3CC(C1)CC2C3 [Example 140, N(7)-Piperidino-5-(4′-chlorophenyl)-5,6-diazatetracyclo[7.3.1.1^3,11.0^4,8]tetradeca-4(8)-6-diene-7-carboxamide] | 50.4% | 24.9% | 71.9% |  |  |  |  | 
2 | CN(NC(=O)c1nn(-c2ccc(Cl)cc2)c2c1C1CCC2C1)C1CCCCC1 (centres unmarked) [Example 213, N(3)-[(N-Cyclohexyl-N-methyl)amino]-1-(4-chlorophenyl)-4,5,6,7-tetrahydro-1H-4,7-methano-indazole-3-carboxamide] |  |  |  | 22.1% | 48.5% |  |  | 
3 | O=C(NCc1ccccc1Cl)c1nn(-c2ccc(Cl)cc2)c2c1C1CCC2C1 (centres unmarked) [Example 221, N(3)-(2-Chlorobenzyl)-1-(4-chlorophenyl)-4,5,6,7-tetrahydro-1H-4,7-methano-indazole-3-carboxamide] |  |  |  | 30.1% |  | 68.6% | -16.7% | 95.7%
4 | O=C(NCc1ccc(Cl)cc1Cl)c1nn(-c2ccc(Cl)cc2Cl)c2c1C1CCC2C1 (centres unmarked) [Example 251, N(3)-(2,4-Dichlorobenzyl)-1-(2,4-dichlorophenyl)-4,5,6,7-tetrahydro-1H-4,7-methano-indazole-3-carboxamide] |  |  |  | 40.8% | 42.3% |  |  | 
5 | O=C(NNc1ccccc1Cl)c1nn(-c2ccc(Cl)cc2Cl)c2c1C1CCC2C1 (centres unmarked) [Example 257, N(3)-[(2-Chlorophenyl)amino]-1-(2,4-dichlorophenyl)-4,5,6,7-tetrahydro-1H-4,7-methano-indazole-3-carboxamide] |  |  |  | 37.5% | 73.5% |  | -5.1% | 48.3%
6 | O=C(NNc1ccc(Cl)cc1Cl)c1nn(-c2ccc(Cl)cc2Cl)c2c1C1CCC2C1 (centres unmarked) [Example 260, N(3)-[(2,4-Dichlorophenyl)amino]-1-(2,4-dichlorophenyl)-4,5,6,7-tetrahydro-1H-4,7-methano-indazole-3-carboxamide] |  |  |  | 34.8% | 84.4% |  | 38% | 78.8%
7 | O=C(NNc1ccccc1Br)c1nn(-c2ccc(Cl)cc2Cl)c2c1C1CCC2C1 (centres unmarked) [Example 263, N(3)-[(2-Bromophenyl)amino]-1-(2,4-dichlorophenyl)-4,5,6,7-tetrahydro-1H-4,7-methano-indazole-3-carboxamide] |  |  |  | 27.1% | 69.1% |  |  | 
8 | O=C(NC1CCCCC1)c1nn(-c2ccc(Br)cc2)c2c1C1CCC2C1 (centres unmarked) [Example 275, N(3)-Cyclohexyl-1-(4-bromophenyl)-4,5,6,7-tetrahydro-1H-4,7-methano-indazole-3-carboxamide] |  |  |  | 19.1% | 38.8% |  |  | 
